Measurements from patent US20250313563A1, “GLYCOGEN SYNTHASE KINASE 3 INHIBITORS AND USES THEREOF” (The Broad Institute, Inc., priority 2022, published 2025).
Read-outs that look alike come from different tables or passages of the source.

Columns and labels:
[1] = biological target: GSK3α (GST-full length GSK3α) (Homo sapiens (Human), UniProt P49840); assay: GSK3α TR-FRET kinase assay; format: biochemical
Outline: (§1)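 Compound was preincubated 30 min with 1 nM GST-GSK3 enzyme. Reaction ran 100 min at ambient temperature in Tris pH 7.5/MgCl2 with 200 nM biotinylated pS645-glycogen synthase 631-650 peptide and ATP (4 μM GSK3α, 2 μM GSK3b, or 1 mM). The EDTA-stopped reaction was read by TR-FRET (Tb-anti-pSer641/streptavidin-d2), and IC50s were fitted.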

[2] = biological target: GSK3b (GST-full length GSK3b) (Homo sapiens (Human), UniProt P49841); assay: GSK3b TR-FRET kinase assay; format: biochemical
Outline: as §1

[3] = 1 nM GSK3α, 4 μM ATP, 30 minute preincubation, Table 16, read-out: GSK3-A TR-FRET BIOCHEMICAL (TR-FRET)
[4] = 1 nM GSK3b, 2 μM ATP, 30 minute preincubation, Table 16, read-out: GSK3-B TR-FRET BIOCHEMICAL (TR-FRET)
[5] = 1 nM GSK3α, 4 μM ATP, 30 minute preincubation, read-out: GSK3-A TR-FRET BIOCHEMICAL (TR-FRET), IC50
[6] = 1 nM GSK3b, 2 μM ATP, 30 minute preincubation, read-out: GSK3-B TR-FRET BIOCHEMICAL (TR-FRET), IC50
[7] = read-out: GSK3-A (TR-FRET 1 mM ATP), GMean, IC50, 1 mM ATP, geometric mean
[8] = read-out: GSK3-B (TR-FRET 1 mM ATP), GMean, IC50, 1 mM ATP, geometric mean
[9] = GSK3-A (TR-FRET 1 mM ATP), GMean, IC50, 1 mM ATP, geometric mean
[10] = GSK3-B (TR-FRET 1 mM ATP), GMean, IC50, 1 mM ATP, geometric mean

Chain of GSK3α (GST-full length GSK3α) (P49840 whole entry): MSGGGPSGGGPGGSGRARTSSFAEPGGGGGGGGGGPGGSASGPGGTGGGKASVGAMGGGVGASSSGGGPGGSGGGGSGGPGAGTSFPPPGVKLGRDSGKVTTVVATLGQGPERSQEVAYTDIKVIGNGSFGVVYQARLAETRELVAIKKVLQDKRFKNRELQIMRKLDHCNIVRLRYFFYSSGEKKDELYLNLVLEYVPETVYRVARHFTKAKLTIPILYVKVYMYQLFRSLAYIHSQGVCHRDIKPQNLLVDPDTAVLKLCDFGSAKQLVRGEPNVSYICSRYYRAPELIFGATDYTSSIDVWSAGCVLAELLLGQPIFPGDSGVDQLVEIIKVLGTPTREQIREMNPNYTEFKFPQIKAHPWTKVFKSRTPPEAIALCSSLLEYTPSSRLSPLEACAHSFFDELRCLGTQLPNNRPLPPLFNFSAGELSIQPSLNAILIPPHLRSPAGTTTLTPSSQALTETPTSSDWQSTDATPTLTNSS
Chain of GSK3b (GST-full length GSK3b) (P49841 whole entry): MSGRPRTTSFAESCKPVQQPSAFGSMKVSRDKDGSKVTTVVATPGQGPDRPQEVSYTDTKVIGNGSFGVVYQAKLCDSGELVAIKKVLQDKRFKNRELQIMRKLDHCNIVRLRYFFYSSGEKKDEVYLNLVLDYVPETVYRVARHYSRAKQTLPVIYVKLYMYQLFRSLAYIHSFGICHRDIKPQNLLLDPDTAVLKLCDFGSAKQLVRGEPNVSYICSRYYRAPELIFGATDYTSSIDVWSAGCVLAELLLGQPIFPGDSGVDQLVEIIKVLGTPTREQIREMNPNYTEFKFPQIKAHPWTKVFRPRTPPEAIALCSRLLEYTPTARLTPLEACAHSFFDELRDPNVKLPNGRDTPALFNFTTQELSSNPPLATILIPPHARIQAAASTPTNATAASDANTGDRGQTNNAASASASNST

IC50 [1, 3]	IC50 [2, 4]	IC50 [1, 5]	IC50 [2, 6]	further results	SMILES
1000 to 5000 nM	> 5000 nM	–	–	–	CC[C@]1(c2cccc(S(=O)(=O)CCOC)c2)C2=C(CC(C)(C)CC2=O)Nc2n[nH]cc21 [Compound 943546]
1000 to 5000 nM	> 5000 nM	–	–	–	CCC1(c2cccc(S(=O)(=O)C3CCCCC3)c2)C2=C(CC(C)(C)CC2=O)Nc2n[nH]cc21 (centres unmarked) [Compound 943547]
≤ 100 nM	100 to 1000 nM	–	–	–	CC1(C)CC(=O)C2=C(C1)Nc1n[nH]cc1C21CCC(n2cnnc2)CC1 (centres unmarked) [Compound 943894]
100 to 1000 nM	100 to 1000 nM	–	–	–	Cc1noc(C2CCC3(CC2)C2=C(CC(C)(C)CC2=O)Nc2n[nH]cc23)n1 (centres unmarked) [Compound 943895]
–	–	≤ 100 nM	≤ 100 nM	–	C[C@H]1C[C@@H]2C[C@]3(C[C@@H]2C1)C1=C(CC(C)(C)CC1=O)Nc1n[nH]cc13 [Compound 943896]
–	–	≤ 100 nM	≤ 100 nM	–	C[C@@H]1C[C@@H]2C[C@]3(C[C@@H]2C1)C1=C(CC(C)(C)CC1=O)Nc1n[nH]cc13 [Compound 943898]
–	–	≤ 100 nM	1000 to 5000 nM	–	CCC1(c2cccc(-c3cnn(C)c3)c2)C2=C(CC(C)(C)NC2=O)Nc2n[nH]cc21 (centres unmarked) [Compound 943912]
≤ 100 nM	≤ 100 nM	–	–	IC50 [1, 7]: ≤ 100 nM; IC50 [2, 8]: 100 to 1000 nM	CC[C@]1(c2cccc(-c3ccncc3C(F)(F)F)c2)C2=C(CC(C)(C)CC2=O)Nc2n[nH]cc21 [Compound 943913]
–	–	–	–	IC50 ([1]; 1 nM GSK3α, 4 μM ATP, 30 minute preincubation, Table 16, read-out: GSK3-A TR-FRET BIOCHEMICAL (TR-FRET), IC50): > 5000 nM; IC50 ([2]; 1 nM GSK3b, 2 μM ATP, 30 minute preincubation, Table 16, read-out: GSK3-B TR-FRET BIOCHEMICAL (TR-FRET), IC50): > 5000 nM	CC1(C)CC(=O)C2=C(C1)Nc1n[nH]cc1C21CN(CC2CCCC2)C1 [Compound 943914]
≤ 100 nM	100 to 1000 nM	–	–	–	CC[C@]1(c2cccc(-c3ccnc(C(F)F)c3)c2)C2=C(CC(C)(C)CC2=O)Nc2n[nH]cc21 [Compound 943919]
–	–	≤ 100 nM	≤ 100 nM	–	CC1(C)CC(=O)C2=C(C1)Nc1n[nH]cc1[C@@]21COC2(CN(C(=O)c3ccccc3)C2)C1 [Compound 943955]
–	–	100 to 1000 nM	1000 to 5000 nM	–	CC1(C)CC(=O)C2=C(C1)Nc1n[nH]cc1C21COC2(CN(C(=O)c3ccccc3)C2)C1 (centres unmarked) [Compound 943956]
–	–	100 to 1000 nM	1000 to 5000 nM	–	CC1(C)CC(=O)C2=C(C1)Nc1n[nH]cc1C21COC2(CN(C(=O)C3CCCC3)C2)C1 (centres unmarked) [Compound 943958]
–	–	≤ 100 nM	100 to 1000 nM	–	CC1(C)CC2=C(C(=O)N1)C1(CCN(S(C)(=O)=O)CC1)c1c[nH]nc1N2 [Compound 943959]
–	–	≤ 100 nM	≤ 100 nM	IC50 [1, 9]: 100 to 1000 nM; IC50 [2, 10]: 100 to 1000 nM	CC1(C)CC2=C(C(=O)N1)C1(CCN(S(=O)(=O)C3CCCC3)CC1)c1c[nH]nc1N2 [Compound 943960]
≤ 100 nM	≤ 100 nM	≤ 100 nM	≤ 100 nM	IC50 [1, 9]: 100 to 1000 nM; IC50 [2, 10]: > 5000 nM	Cn1ccc(S(=O)(=O)N2CCC3(CC2)C2=C(CC(C)(C)NC2=O)Nc2n[nH]cc23)n1 [Compound 943961]
≤ 100 nM	100 to 1000 nM	≤ 100 nM	100 to 1000 nM	–	COc1cccc(S(=O)(=O)N2CCC3(CC2)C2=C(CC(C)(C)CC2=O)Nc2n[nH]cc23)c1 [Compound 943962]
–	–	≤ 100 nM	≤ 100 nM	–	CC1(C)CC2=C(C(=O)N1)C1(CCN(S(=O)(=O)c3ccc(F)cc3)CC1)c1c[nH]nc1N2 [Compound 943963]
–	–	≤ 100 nM	≤ 100 nM	IC50 [1, 7]: 100 to 1000 nM; IC50 [2, 8]: 1000 to 5000 nM	CC[C@@]1(c2cccc(N(C)c3ncccn3)c2)C2=C(CC(C)(C)NC2=O)Nc2n[nH]cc21 [Compound 943964]
–	–	100 to 1000 nM	> 5000 nM	–	CC[C@]1(c2cccc(N(C)c3ncccn3)c2)C2=C(CC(C)(C)NC2=O)Nc2[nH]ncc21 [Compound 943965]
–	–	≤ 100 nM	100 to 1000 nM	–	CCC1(c2cccc(-c3cc(C)nn3C)c2)C2=C(CC(C)(C)NC2=O)Nc2n[nH]cc21 (centres unmarked) [Compound 943966]
–	–	> 5000 nM	> 5000 nM	–	CC[C@]1(c2cccc(-c3cc(C)nn3C)c2)C2=C(CC(C)(C)NC2=O)Nc2n[nH]cc21 [Compound 943967]
100 to 1000 nM	1000 to 5000 nM	–	–	–	CCC1(c2cccc(-c3ccnc(OC(F)(F)F)c3)c2)C2=C(CC(C)(C)CC2=O)Nc2n[nH]cc21 (centres unmarked) [Compound 943988]
≤ 100 nM	≤ 100 nM	–	–	IC50 [1, 7]: ≤ 100 nM; IC50 [2, 8]: 100 to 1000 nM	CCC1(c2cccc(-c3ccncc3C)c2)C2=C(CC(C)(C)CC2=O)Nc2n[nH]cc21 (centres unmarked) [Compound 943990]
